PubChem BioAssay (NCI)
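96-well plates; 48 h exposure; 5 concentrations. Endpoints by linear interpolation between flanking doses. Not reached: highest tested concentration assigned. GI50 = concentration required for 50% inhibition of growth. The concentration for full growth arrest is given as TGI.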

How the values were obtained:
Experiment in all cases: NCI anticancer screen, dose series, 48 h
[1] = system: MDA-MB-435
[2] = system: ACHN renal
[3] = system: OVCAR-8 ovarian
[4] = system: IGROV1 ovarian
[5] = system: MDA-MB-231 breast
[6] = system: NCI-H23 lung
[7] = system: 786-0 renal
[8] = system: SN12C renal
[9] = system: CCRF-CEM leukemia
[10] = system: K-562 leukemia

Compound	TGI [1]	TGI [2]	TGI [3]	TGI [4]	TGI [5]	TGI [6]	TGI [7]	TGI [8]	TGI [9]	TGI [10]	GI50 [1]	GI50 [2]	GI50 [10]	GI50 [3]	GI50 [4]	GI50 [5]	GI50 [6]	GI50 [7]	GI50 [8]	GI50 [9]
COc1ccc2c(c1O)C13CCN(C)C(C2)C1CCC1(C3)OCCO1 (configuration not stated)	> 100 µM	> 100 µM	> 100 µM	> 100 µM	> 100 µM	> 100 µM	> 100 µM	> 100 µM	–	–	–	–	–	–	–	–	–	–	–	–
COc1ccc2c(c1)C(=O)N1CCOC1C2C(=O)O (configuration not stated)	–	> 100 µM	> 100 µM	> 100 µM	–	> 100 µM	> 100 µM	> 100 µM	> 100 µM	> 100 µM	–	–	–	–	–	–	–	–	–	–
CCOC(=O)c1sc2ncn(Cc3cccc(Br)c3)c(=O)c2c1C	> 100 µM	> 100 µM	> 100 µM	> 100 µM	74.8 µM	> 100 µM	> 100 µM	47.3 µM	–	> 100 µM	54.1 µM	84.6 µM	16.8 µM	51.1 µM	0.172 µM	12.5 µM	66.7 µM	33.9 µM	11.7 µM	–
CC(=O)Oc1cc(C)c2c(c1OC(C)=O)CC1(O2)[C@@H](C)CCC2[C@@]3(C)CC[C@H](OC(C)=O)C(C)(C)C3CC[C@]21C (some centres not stated)	–	7.63 µM	13.7 µM	4.49 µM	–	11.5 µM	7.46 µM	11.8 µM	–	–	–	–	–	–	–	–	–	–	–	–
N#CC(/C(=N/NC(=O)C(=O)NN)C(=O)Nc1nc([N+](=O)[O-])cs1)c1ccc(Cl)cc1 (configuration not stated)	–	> 100 µM	> 100 µM	> 100 µM	–	> 100 µM	> 100 µM	> 100 µM	> 100 µM	–	–	–	–	–	–	–	–	–	–	–
C#CCN(Cc1nc2cc(C(F)(F)F)ccc2nc1-c1ccccc1)c1ccc(OC(F)(F)F)cc1	> 100 µM	> 100 µM	> 100 µM	> 100 µM	> 100 µM	> 100 µM	> 100 µM	> 100 µM	–	> 100 µM	39.4 µM	50.2 µM	33.9 µM	74.3 µM	34.8 µM	28.4 µM	60.5 µM	> 100 µM	38.2 µM	–
CC[O-].CC[O-].O=C([CH-]C(=O)c1cccnc1)c1ccccc1.O=C([CH-]C(=O)c1cccnc1)c1ccccc1.[Ti+4]	–	> 100 µM	> 100 µM	> 100 µM	–	–	> 100 µM	> 100 µM	–	> 100 µM	–	53.4 µM	36.2 µM	26.2 µM	> 100 µM	–	–	61.1 µM	> 100 µM	–
O=C(Nc1ccccc1)c1nn(-c2cc(S(=O)(=O)O)c([N+](=O)[O-])cc2Cl)[n+](-c2cc(S(=O)(=O)[O-])c([N+](=O)[O-])cc2Cl)n1	> 100 µM	> 100 µM	–	> 100 µM	94 µM	> 100 µM	> 100 µM	> 100 µM	> 100 µM	> 100 µM	–	–	–	–	–	–	–	–	–	–
COc1cc2c3c(n(CCCN(CCN)CCCn4c5c(c6cc(OC)c(OC)cc6c4=O)C(=O)c4cc6c(cc4-5)OCO6)c(=O)c2cc1OC)-c1cc2c(cc1C3=O)OCO2	23.2 µM	3.02 µM	> 42.2 µM	–	17.3 µM	5.24 µM	1.51 µM	0.755 µM	0.407 µM	> 32.5 µM	2.22 µM	0.376 µM	2.73 µM	1.53 µM	–	3.3 µM	0.984 µM	0.314 µM	0.141 µM	0.116 µM
C=C(C)C1Cc2c(cc(OC)c3c(=O)c4cccc(O)c4oc23)O1 (configuration not stated)	–	32.1 µM	59.5 µM	33.1 µM	47.6 µM	59.5 µM	32.9 µM	76.7 µM	> 100 µM	> 100 µM	–	–	–	–	–	–	–	–	–	–
CN(C)CCN(C)CC1COC(C)(C)O1 (configuration not stated)	–	> 100 µM	> 100 µM	> 100 µM	–	> 100 µM	> 100 µM	> 100 µM	> 100 µM	> 100 µM	–	–	–	–	–	–	–	–	–	–
O=c1cc(-c2ccccc2)oc2cc(O)c(O)c(O)c12	39.8 µM	> 100 µM	> 100 µM	–	36.8 µM	39.7 µM	27.3 µM	26 µM	> 100 µM	> 100 µM	10.2 µM	9.32 µM	12.6 µM	46.5 µM	–	14.1 µM	12.7 µM	9.87 µM	8.8 µM	2.39 µM
Cc1noc2cccc(OCc3ccccc3)c12	–	> 100 µM	> 100 µM	> 100 µM	–	> 100 µM	> 100 µM	> 100 µM	> 100 µM	> 100 µM	–	–	–	–	–	–	–	–	–	–
CCN(CC)CCCn1cnc2ncccc2c1=O	–	> 100 µM	> 100 µM	> 100 µM	–	> 100 µM	> 100 µM	> 100 µM	> 100 µM	> 100 µM	–	–	–	–	–	–	–	–	–	–
CN(CCCCCl)P(=O)(OCc1ccc([N+](=O)[O-])o1)OCC1OC(n2ccc(N)nc2=O)C(F)(F)C1O (configuration not stated)	> 50.9 µM	–	–	> 100 µM	> 100 µM	1.53 µM	1.5 µM	9.62 µM	–	> 100 µM	0.473 µM	0.0374 µM	13 µM	0.108 µM	35.4 µM	> 49.3 µM	0.0742 µM	0.0614 µM	0.363 µM	–
Cc1oc2c(C)c3oc(=O)cc(C)c3cc2c1CNC(=O)[C@@H]1OCCOCCOCCOCCOCCOC1C(=O)O (some centres not stated)	–	> 100 µM	> 100 µM	> 100 µM	–	> 100 µM	45 µM	> 100 µM	> 100 µM	> 100 µM	–	–	–	–	–	–	–	–	–	–
O=C(O)C1=CCCc2ccc3ccccc3c21	–	> 100 µM	> 100 µM	> 100 µM	–	> 100 µM	> 100 µM	> 100 µM	–	> 100 µM	–	–	–	–	–	–	–	–	–	–
Cc1ccccc1C1=[N+]([O-])c2ccccc2C1=O	–	30.6 µM	30.3 µM	34.9 µM	–	35.4 µM	31.3 µM	32.1 µM	54.5 µM	45.7 µM	–	–	–	–	–	–	–	–	–	–
O=C1C2C(C(=O)[N]1[Hg][c]1cccs1)C1(Cl)C(Cl)=C(Cl)C2(Cl)C1(Cl)Cl (configuration not stated)	3.05 µM	3.04 µM	–	3.52 µM	–	3.14 µM	1.81 µM	–	–	3.41 µM	1.47 µM	1.61 µM	0.291 µM	–	1.29 µM	–	1.62 µM	0.67 µM	–	0.29 µM
